From ChEMBL document CHEMBL1201862, “PubChem BioAssay data set” (2004)
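Dose response: 5 concentrations. Exposure: 48 h. Format: 96-well plates. Endpoint: linear interpolation; highest concentration if not reached. The concentration for 50% growth inhibition is given as GI50.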 The source made the active and inactive calls. No stated cut-off is given here; in the data, active = GI50 up to about 1.1 µM and inactive = higher.

Columns and labels:
Assay in all cases: NCI tumour cell line growth inhibition, 48 h
M19-MEL = system: M19-MEL
DLD-1 = system: DLD-1
LXFL 529 = system: LXFL 529
DMS-114 = system: DMS-114
DMS-273 = system: DMS-273
SNB-78 = system: SNB-78
HOP-18 = system: HOP-18
XF498 = system: XF498
RXF 631 = system: RXF 631

SMILES	GI50 (M19-MEL)	GI50 (DLD-1)	GI50 (LXFL 529)	GI50 (DMS-114)	GI50 (DMS-273)	GI50 (SNB-78)	GI50 (HOP-18)	GI50 (XF498)	GI50 (RXF 631)
NS(=O)(=O)c1ccc(NC2=CC(=O)C(=O)c3ccccc32)cc1	> 100 µM (inactive)	> 100 µM (inactive)	> 100 µM (inactive)	43.2 µM (inactive)	> 100 µM (inactive)	> 100 µM (inactive)	> 100 µM (inactive)		
O=[N+]([O-])c1ccc(/C=N/C23CC4CC(CC(C4)C2)C3)cc1	> 100 µM (inactive)	> 100 µM (inactive)	> 100 µM (inactive)	91.2 µM (inactive)	> 100 µM (inactive)	> 100 µM (inactive)	> 100 µM (inactive)	> 100 µM (inactive)	> 100 µM (inactive)
CN(C)/C=C/C(=O)c1cccc(C(=O)/C=C/N(C)C)n1	> 100 µM (inactive)	> 100 µM (inactive)	> 100 µM (inactive)		> 100 µM (inactive)	> 100 µM (inactive)	> 100 µM (inactive)	> 100 µM (inactive)	
CC(C)=CC(=O)OC1C2C(C)=CC(=O)C(O)C2(C)C2C3(O)OCC24C(CC(=O)OC14)C(C)C3O (stereo not given)		0.0211 µM (active)			0.00348 µM (active)	0.0311 µM (active)		0.0246 µM (active)	
O=C1c2c(c3c4ccccc4n(CC4CO4)c3c3[nH]c4ccccc4c23)C(=O)N1Cc1ccccc1 (stereo not given)	> 100 µM (inactive)	> 10 µM (inactive)	> 100 µM (inactive)	> 100 µM (inactive)	> 100 µM (inactive)	> 100 µM (inactive)		3.7 µM (inactive)	> 100 µM (inactive)
CC1=NN(C(=O)Cc2ccccc2)C(=O)/C1=C\c1ccc([N+](=O)[O-])cc1	> 100 µM (inactive)	> 100 µM (inactive)	> 100 µM (inactive)	> 100 µM (inactive)		> 100 µM (inactive)		> 100 µM (inactive)	
N#CCN1C(=O)c2cc([N+](=O)[O-])cc3cc([N+](=O)[O-])cc(c23)C1=O	14.3 µM (inactive)	7.05 µM (inactive)	9.23 µM (inactive)	15.2 µM (inactive)	23.9 µM (inactive)	16.7 µM (inactive)	64.3 µM (inactive)	12.2 µM (inactive)	20 µM (inactive)
O=c1c2ccccc2nc(-c2cccc(Cl)c2)n1NCC1(O)OCC(O)C(O)C1O (stereo not given)	> 100 µM (inactive)		93.1 µM (inactive)	> 100 µM (inactive)	> 100 µM (inactive)	> 100 µM (inactive)			66.5 µM (inactive)
CCOC(=O)CC(C)C1(C(=O)OCC)CCCCC1=O (stereo not given)	> 100 µM (inactive)	35 µM (inactive)	> 100 µM (inactive)	20.3 µM (inactive)	15 µM (inactive)	> 100 µM (inactive)	> 100 µM (inactive)	> 100 µM (inactive)	> 100 µM (inactive)
CCN(CC)CC(=O)O[C@]1(CC)C(=O)OCc2c1cc1n(c2=O)Cc2cc3ccccc3nc2-1	0.0902 µM (active)	0.916 µM (active)	0.404 µM (active)	0.0142 µM (active)	< 0.01 µM (active)	0.953 µM (active)	0.0908 µM (active)	0.2 µM (active)	
CCCOP(=S)(N1CC1)N1CC1	> 100 µM (inactive)	> 100 µM (inactive)		> 100 µM (inactive)	> 100 µM (inactive)	> 100 µM (inactive)	40.7 µM (inactive)	> 100 µM (inactive)	
CCOC(=O)C1=C(C)N(c2ccc(C)cc2)C2=C(C(=O)N(c3ccccc3)C2c2ccccc2)C1c1ccccc1 (stereo not given)	> 25 µM (inactive)	12.3 µM (inactive)	20 µM (inactive)	17.9 µM (inactive)	> 25 µM (inactive)			> 25 µM (inactive)	> 25 µM (inactive)
CCOC(=O)c1[nH]c(COC(C)=O)c(CCCOC(C)=O)c1CCCOC(C)=O			> 100 µM (inactive)		> 100 µM (inactive)	> 100 µM (inactive)		> 100 µM (inactive)	
CC1=CC=C2C(C)(C)CC[C@@H]3OC(=O)[C@H]1[C@]23C	> 100 µM (inactive)	> 100 µM (inactive)	> 100 µM (inactive)	> 100 µM (inactive)	> 100 µM (inactive)	37.1 µM (inactive)	> 100 µM (inactive)	> 100 µM (inactive)	> 100 µM (inactive)
